In a melting point compilation (Tetko et al.; mined from patent text by program, amines drawn as free bases though some values may be those of a salt):

| SMILES | melting point |
| --- | --- |
| O=C1NC(O)c2c1c1c3ccccc3[nH]c1c1[nH]c3ccccc3c21 (stereo not given) | > 300 °C |
| COc1cc(-c2ccsc2)cc2oc(=O)c(C)c(C)c12 | 158 to 160 °C |
| CC1Cc2ccccc2P1c1ccccc1P(c1ccccc1)c1ccccc1 (single isomer, unassigned; (+)) | 40 to 42 °C |
| FC(F)(F)c1cc(Cl)nc2[nH]ncc12 | 112 °C |
| O=c1[nH]c2ccc(O)cc2c(=O)n1CCN1CCC(c2c[nH]c3ccccc23)CC1 | 258 °C |
| O=C(O)c1ccc2c(Br)n[nH]c2c1 | > 250 °C |
| CCCCCCN(C)c1ccc(C=C2SC(=S)N(CC(=O)NS(=O)(=O)c3ccccc3)C2=O)cc1 | 173 to 177 °C |
| N#CC1=C(c2ccccc2)Nc2n[nH]cc2C1c1cccc2c1OCCC2 (stereo not given) | 255 °C |
| CSc1cc2n(c(=O)n1)C(C)N=C2 (stereo not given) | 221 to 222 °C |
| CC(C)(C)SC1CC(=O)N1CC(=O)CCc1ccccc1 (stereo not given) | 65 °C |
| CC12CCC(C(=O)O)=CC1=CCC1C2CCC2(C)C(C(=O)CCCc3ccccc3)CCC12 (stereo not given) | 208 to 210 °C |
| Cc1c[nH]c(Cc2ccc(O)cc2)n1 | 193 to 194 °C |
| O=CNC1Cc2ccccc2C1 | 72 to 74 °C |
| CCCCCCCCc1ccc(C(=O)C(O)c2ccccc2)cc1 (stereo not given) | 65 to 70 °C |
| Cc1c(Cl)c(C=O)c(C)c2c1CC(C)(C)C2 | 127 °C |
| CCOC(=O)C(=CNc1ccc(COC(C)=O)cc1I)C(=O)OCC | 128 to 131 °C |
| O=C(O)c1c(O)cccc1Cc1cccs1 | 155 to 158 °C |
| COC1CCC2C3CCC4CC(Cl)CCC4(C)C3CCC12C (stereo not given) | 151 to 154 °C |
| Cc1cccc2sc(-n3nc4c(c3O)-c3ccccc3CC4)nc12 | 224 to 225 °C |

| SMILES | melting point |
| --- | --- |
| CC(C)S(=O)(=O)c1cc(OCCc2ccccn2)c2[nH]nc(Nc3ncc(CN4CCOCC4)s3)c2c1 | > 190 °C |
| CC1(C)C(=O)N(c2ccc(C#N)c(C(F)(F)F)c2)C(=O)N1CCCO | 131 to 132 °C |
| O=C(O)C1=Cc2cc(-c3ccc4c(c3)OCO4)ccc2SCC1 | 227 to 229 °C |
| CN(C)CCn1c(-c2ccc(Cl)cc2)cc2c1CCSC2 | 91.5 to 92.5 °C |
| CCOC(=O)C1CCc2cc([N+](=O)[O-])ccc2O1 (stereo not given) | 80.8 °C |
| Cc1cc(C(=O)NCCc2ccc(CCC(=O)O)cc2)n[nH]1 | 202 to 205 °C |
| Clc1ccc2c(c1)N=C(N1CCCN(C3CC3)CC1)c1ccccc1N2 | 141 to 143 °C |
| CN1CC(CN2CCC(C(O)(c3ccc(F)cc3)c3ccc(F)cc3)CC2)OC1=O (stereo not given) | 147 to 148 °C |
| O=C(Nc1ccccc1N1CCc2ccccc21)c1ccncc1 | 120 to 121 °C |
| CCn1ccccc1=S | 50 °C |
| O=C1OC(c2ccccc2)CC(O)=C1SCc1ccccc1 (stereo not given) | 150 to 152 °C |
| Cc1onc(NS(=O)(=O)c2ccccc2-c2ccc(-c3ncco3)cc2Cn2ccc(C(F)(F)F)n2)c1C | 89 to 99 °C |
| CCCCCCC1(c2ccccc2)CC(O)=CC(=O)O1 (stereo not given) | 119 to 120 °C |
| C=CC(=O)NCC(C(C)=O)C(=O)c1ccccc1 (stereo not given) | 125 to 126 °C |
| Cc1oc2ccccc2c1OC(C)(C)C(N)=O | 116 to 120 °C |
| CSc1ccc(N2CCOCC2)c(NC(=N)C(C)C)c1 | 155 °C |
| O=C(O)CN1C(=O)C(=Cc2c[nH]c3ccccc23)SC1=S | > 300 °C |
| CC(=O)N(C)c1cc2c(nc(C)n2C)c(O)c1CN(C)C | 181 to 184 °C |
| c1ccc(CN2CCC(Oc3cnccn3)(c3ccccc3)CC2)cc1 | 107 to 108 °C |

| SMILES | melting point |
| --- | --- |
| O=C(Nc1cccc(-n2nc(C(F)(F)F)cc2C(F)(F)F)c1)c1c(F)cccc1F | 142 to 143 °C |
| c1ccc(C(N=C2NCCN2)c2ccccc2)cc1 | 189 to 190 °C |
| CC(C)CCN1C(=O)C2(COc3cc(O)c(C(=O)C(F)(F)F)cc32)c2ccccc21 (stereo not given) | 87 to 88 °C |
| Clc1ccc(C2(CCBr)OCC(c3ccc(Cl)cc3Cl)O2)cc1 (stereo not given) | 82.7 °C |
| Cn1ncc2nn(-c3cc(C(F)(F)F)ccc3F)c(=O)cc21 | 190 to 195 °C |
| CCOC(=O)NC[C@H]1CN(c2ccc(N3CCC(n4ncnn4)CC3)c(F)c2)C(=O)O1 | 176 to 178 °C |
| CCOC(=O)C(CCCc1ccccc1CP(=O)(OCC)OCC)(NC(C)=O)C(=O)OCC | 76 to 79 °C |
| CN(C)C1(c2ccccn2)CCC(NCCc2c[nH]c3ccccc23)CC1 (stereo not given) | 150 to 152 °C |
| O=C(CS(=O)CCNC(=O)c1ccco1)NCCCOc1cccc(CN2CCCCC2)c1 (stereo not given) | 101 to 102 °C |
| Cn1c2c(c3ccccc31)CCOC2(C)C | 96 to 97 °C |
| CCCCCCC(=O)CCCCCCCC(COC(C)=O)(COC(C)=O)NC(C)=O | 88 to 89 °C |
| CC(=O)SCCCc1ccc(C2OCC(C)(C)CO2)cc1 | 44 °C |
| COc1ccc(CBr)cc1[N+](=O)[O-] | 110 to 112 °C |
| CS(=O)(=O)c1nccn1CC(=O)Cl | 132 to 133 °C |
| NC(=O)c1ccc2c(c1)CCOC2CCN1CCN(c2ccc(Cl)cc2)CC1 (stereo not given) | 169 to 171 °C |
| CC(C)(C)OC(=O)N[C@@H]1CN[C@H]2CCCO[C@H]21 (relative stereo) | 110 to 111 °C |
| Cn1cc(CC(=O)O)c(OCCCc2cn(-c3ccc(C(F)(F)F)cn3)nc2C2CCCCC2)n1 | 157 to 158 °C |
| CC1(C)CN(c2ncc(C(=O)N(c3cccc(C(F)(F)F)c3)C3CCCC3)c(N)n2)C(=O)N1 | 135 to 139 °C |
| CN1C(=O)C(C)(C)C(=O)N(C)c2cc(Br)ccc21 | 194 to 195 °C |

More lines, now with the values ahead:

| melting point | SMILES |
| --- | --- |
| 176 to 177 °C | COC(=O)c1cc([N+](=O)[O-])ccc1-c1ccc([N+](=O)[O-])cc1C(=O)OC |
| 248 to 249 °C | C/C(=N\O)c1cccc(Nc2c3ccccc3nc3occc23)c1 |
| 213 to 215 °C | O=C(Nc1ccc(-c2ccccc2Cl)[nH]c1=O)OCc1ccccc1 |
| > 300 °C | O=c1c(O)c(-c2nnc(Cc3ccc(F)cc3)o2)[nH]c2ccccc12 |
| 101 to 105 °C | CCCn1nc2c(N)nc3ccccc3c2c1CCCCN1C(C)=NOC12CCCC2 |
| 195 to 196 °C | O=[N+]([O-])c1cc(I)ccc1Nc1cccc(-c2ccccn2)c1 |
| 336 to 338 °C | COc1ccccc1N1CC(=O)Nc2c(C(N)=O)nc(-c3cccc(O)c3)nc21 |
| 126 to 127 °C | COc1ccc(C(=O)CN2CCc3cc(OCc4ccccc4)c(OC)cc3C2)cc1OC |
| 202 to 204 °C | CCCCc1nc2cc(F)ccc2n1Cc1ccc(C(=O)O)cc1 |
| 197 to 203 °C | CCCCCN1Cc2cccc(S(=O)(=O)NC(=O)Nc3nc(OC)cc(OC)n3)c2S1(=O)=O |
| 71 to 72 °C | COc1ccc(C(=O)Cc2cccnc2)cc1 |
| 155 °C | N#Cc1ccc(-c2cn(-c3ccc(OC(F)(F)F)cc3)cn2)cc1 |
| 90.5 to 92.8 °C | COC(=O)C(C)Oc1ccc(NC(=O)OCCO)cc1 (stereo not given) |
| 145 to 148 °C | CCOC(=O)c1cnc2ccc(CC)nc2c1Nc1ccc(OC)cc1 |
| 265 to 266 °C | Cc1ccccc1NS(=O)(=O)c1ccc(NC2=C(Cl)C(=O)c3ccccc3C2=O)cc1 |
| 200 to 201 °C | CN(c1cccc2cc(-c3nc(CCC(=O)O)cs3)[nH]c12)S(=O)(=O)c1cccs1 |
| 143 to 144 °C | O=C1C(=Cc2ccc(Cl)s2)CCc2cc(OCCn3ccnc3)ccc21 |
| 223 to 225 °C | CCOC(=O)C1C=Nc2c(ccc3ncccc23)N1O (stereo not given) |
| 156 to 157 °C | C#CCc1c(C)nc2c(OCc3ccncc3C)cccn12 |
| 184 to 185 °C | COc1ccc(C(=O)Nc2ccccc2)cc1NCc1cccc(C)c1 |
| 133 to 134 °C | COC(=O)c1cccc(-c2cccc(Oc3ccc(Cl)c(Cl)c3)n2)c1 |
| 125 to 126 °C | CCC(CC)c1nn(-c2ccc(C(F)(F)F)cn2)cc1CCCOc1c(C)cccc1CC(=O)O |

| melting point | SMILES |
| --- | --- |
| 123 to 125 °C | O=C(Nc1cccnc1NCc1ccc(Cl)cc1)c1ccccn1 |
| 179 to 180 °C | COc1cc2c(Oc3ccc(Cl)cc3F)ncnc2cc1OCc1ccccc1 |
| 230 to 232 °C | Cc1cc(N2CCC=C(C(N)=O)C2)c2cccc(-c3ccc(Cl)cc3Cl)c2n1 |
| 59 to 62 °C | CC(C)(O)CCOc1c(-c2ccc(S(N)(=O)=O)cc2)cnn(-c2ccc(F)c(Cl)c2)c1=O |
| 172 to 175 °C | Cc1ccccc1OCC(=O)Nc1ccc(C(=O)N2CCCCc3ccccc32)cc1 |
| 198 to 199 °C | CC(C)(CCC#N)c1ccc(C(=O)Nc2cn3cc(Cl)ccc3n2)cc1 |
| 166 to 167 °C | COC(=O)CCCc1ccc(NC(=O)[C@@H](Cc2ccc(OCc3ccccc3)cn2)NC(=O)OC(C)(C)C)cc1 |
| 195 to 197 °C | CCCOCCOc1ccc(-c2ccc3c(c2)C=C(C(=O)Nc2ccc(CN(C)C4CCOCC4)cc2)CCS3(=O)=O)cc1 |
| 207 to 210 °C | COc1ccc(CNc2cc3c(Nc4ccc(Cl)c(Br)c4)ncnc3cn2)cc1 |
| 232 to 234 °C | COc1ccc(C(=O)O)c(-c2ccc(C(F)(F)F)cc2)c1 |
| 147 to 149 °C | CCCc1ccc(NC(=O)c2cccnc2NCc2ccncc2)cc1C(F)(F)F |
| > 260 °C | CC(=O)Nc1ccc(NCc2cnc3nc(N)nc(N)c3n2)cc1 |
| 181 to 182 °C | CCOP(=O)(Cc1ccc(NC(=O)/C=C/c2cn[nH]c2-c2ccc(F)cc2)cc1)OCC |
| 251 to 253 °C | COC(=O)c1cc(C(=O)NCCNC(C)=O)c2cc(Cc3ccc(F)cc3)cnc2c1O |
| 106 to 108 °C | CCN(CC)CCNC(=O)c1c(I)ccc2c1Nc1ccccc1C2 |
| 214 to 216 °C | COc1cc(C(F)(F)F)cc(OC)c1-c1csc(NC(=O)c2cc3ccccc3n2CC(=O)OC(C)(C)C)n1 |
| 155 to 157 °C | COc1ccc(Cn2cnc3c(-c4ccco4)nc(C#C[Si](C)(C)C)nc32)cc1 |
| 278 to 279 °C | CCc1ccc2c(c1NC(=O)CC1c3ccccc3Oc3ccccc31)OC(C)C2 (stereo not given) |
| 195 to 196 °C | CNc1nc(C(C)c2ccc(-c3ccc(F)cc3)c(F)c2)c(C(=O)O)s1 (stereo not given) |
| 181 °C | CCCCc1c(C(=O)c2ccc(O)cc2)[nH]c2ccc([N+](=O)[O-])cc12 |
| 180 to 181 °C | CCOC(=O)c1ccn2nc(-c3ccccc3)cc2n1 |
